# Reference: patent US20250145665A1, “MACROCYCLIC PEPTIDES USEFUL AS MODULATORS OF TNF ALPHA” (Bristol-Myers Squibb Company, priority 2023, published 2025)
# Starred links: 1 amine or outer side, 2 acyl side, 3 side chain; linkers in the order of their positions; H or OH if unused. Positions of bridges follow the written chain, without caps; N, C: chain ends. Non-standard residues stand in square brackets, D forms with d. Residues, ends and D or L forms follow the SMILES beside them. ξ: configuration not given here. *: point of attachment. X56 = O=C(O)COc1cccc(NC(=O)c2ccc(-c3ccc(C[C@H](N[*:1])C(=O)[*:2])cc3)cc2)c1; X5 = Cn1nc(C(=O)Nc2ccc(-c3ccc(C[C@H](N[*:1])C(=O)[*:2])cc3)cc2)c2ccccc21; Bip(4'-NH) = O=C([C@H](Cc1ccc(-c2ccc(N[*:3])cc2)cc1)N[*:1])[*:2]; dArg(ω-(3-HO-benzyl)) = N=C(NCCC[C@@H](N)C(=O)O)NCc1cccc(O)c1; Indazole3carbonyl(1-CH2COOH) = O=C(O)Cn1nc(C(=O)*)c2ccccc21; Bip(4'-COOH) = N[C@@H](Cc1ccc(-c2ccc(C(=O)O)cc2)cc1)C(=O)O; Bip(4'-NHAc) = CC(=O)Nc1ccc(-c2ccc(C[C@H](N)C(=O)O)cc2)cc1; Indole3carbonyl(1-CH2COOH) = O=C(O)Cn1cc(C(=O)*)c2ccccc21; Phe(4-(4-pyridyl)) = N[C@@H](Cc1ccc(-c2ccncc2)cc1)C(=O)O; X6 = N=C(NCCCCC(N)=O)NCCC[C@@H](N[*:1])C(=O)[*:2]; Ala(imidazol-2-yl) = N[C@@H](Cc1ncc[nH]1)C(=O)O; dArg(ω-Bn) = N=C(NCCC[C@@H](N)C(=O)O)NCc1ccccc1; Ala(morpholin-4-yl) = N[C@@H](CN1CCOCC1)C(=O)O; Benzoyl(3-OCH2COOH) = O=C(O)COc1cccc(C(=O)*)c1; Phe(3-CONH2) = NC(=O)c1cccc(C[C@H](N)C(=O)O)c1; Bip = N[C@@H](Cc1ccc(-c2ccccc2)cc1)C(=O)O; X60 = O=C(c1ccc2c(c1)CCc1ccccc1-2)*; Val(3-OH) = CC(C)(O)[C@H](N)C(=O)O; 2Pal = N[C@@H](Cc1ccccn1)C(=O)O; Tic = O=C(O)[C@@H]1Cc2ccccc2CN1; Cha = N[C@@H](CC1CCCCC1)C(=O)O; Tle = CC(C)(C)[C@H](N)C(=O)O; ξP = O=C(O)C1CCCN1; Sar = CNCC(=O)O
# Target: TNFα (Homo sapiens, UniProt P01375)
# Assay: TNF-Induced HEK-Blue Assay
# Assay type: cell-based
# Details: not given
# Chain of TNFα (P01375 77-233 limits assumed): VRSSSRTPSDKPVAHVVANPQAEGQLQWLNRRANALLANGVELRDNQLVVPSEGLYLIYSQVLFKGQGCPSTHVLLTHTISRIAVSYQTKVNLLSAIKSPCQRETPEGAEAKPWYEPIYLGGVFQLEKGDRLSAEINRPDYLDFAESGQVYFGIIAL
row,SMILES,IC50 [nM]
1,CC(C)C[C@@H]1NC(=O)[C@H](Cc2ccc(O)cc2)NC(=O)[C@H](C(C)C)NC(=O)[C@@H]2CCCN2C(=O)[C@H](C(C)C)NC(=O)[C@@H](CCCNC(=N)NCc2ccccc2)NC(=O)[C@H](CC(=O)O)NC(=O)[C@@H]2CCCN2C(=O)CN(C)C(=O)[C@H](Cc2ccc(-c3ccc(NC(=O)c4cn(CC(=O)O)c5ccccc45)cc3)cc2)NC(=O)[C@H](Cc2ccc(-c3ccc(C(=O)O)cc3)cc2)NC(=O)[C@H](CC2CCCCC2)NC(=O)CSC[C@@H](C(=O)NCC(N)=O)NC1=O [Example 580] ({CH2CO}-[Cha][Bip(4'-COOH)][Bip(4'-NH)](Indole3carbonyl(1-CH2COOH))[Sar]PD[dArg(ω-Bn)]VPVYLCG-NH2; thioether N-13),< 50
2,CC(C)C[C@@H]1NC(=O)[C@H](Cc2ccc(O)cc2)NC(=O)[C@H](C(C)C)NC(=O)CN(C)C(=O)[C@H](C(C)C)NC(=O)[C@H](CCCNC(=N)N)NC(=O)[C@H](CC(=O)O)NC(=O)[C@@H]2CCCN2C(=O)CN(C)C(=O)[C@H](Cc2ccc(-c3ccccc3)cc2)NC(=O)[C@H](Cc2ccc(-c3ccccc3)cc2)NC(=O)[C@H](CC(N)=O)NC(=O)CSC[C@@H](C(=O)NCC(N)=O)NC1=O [Example 142] ({CH2CO}-N[Bip][Bip][Sar]PDRV[Sar]VYLCG-NH2; thioether N-13),200 to 2000
3,CC(C)C[C@@H]1NC(=O)[C@H](Cc2cnc[nH]2)NC(=O)[C@H](C(C)C)NC(=O)[C@@H]2CCCN2C(=O)[C@H](C(C)C)NC(=O)[C@@H](CCCNC(=N)NCc2cccc(O)c2)NC(=O)[C@H](CC(=O)O)NC(=O)[C@H](Cc2ccccn2)NC(=O)CN(C)C(=O)[C@H](Cc2ccc(-c3ccc(NC(=O)c4nn(CC(=O)O)c5ccccc45)cc3)cc2)NC(=O)[C@H](Cc2ccc(-c3ccccc3)cc2)NC(=O)[C@H](CN2CCOCC2)NC(=O)CSC[C@@H](C(=O)NCC(N)=O)NC1=O [Example 624] ({CH2CO}-[Ala(morpholin-4-yl)][Bip][Bip(4'-NH)](Indazole3carbonyl(1-CH2COOH))[Sar][2Pal]D[dArg(ω-(3-HO-benzyl))]VPVHLCG-NH2; thioether N-13),< 50
4,CC[C@H](C)[C@@H]1NC(=O)[C@@H](CCCNC(=N)N)NC(=O)[C@H](CC(=O)O)NC(=O)[C@H](Cc2cnc[nH]2)NC(=O)CN(C)C(=O)[C@H](Cc2ccc(-c3ccc(NC(=O)c4nn(CC(=O)O)c5ccccc45)cc3)cc2)NC(=O)[C@H](Cc2ccc(-c3ccccc3)cc2)NC(=O)[C@H](CC2CCCCC2)NC(=O)CSC[C@@H](C(=O)NCC(N)=O)NC(=O)[C@H](CC(C)C)NC(=O)[C@H](Cc2cnc[nH]2)NC(=O)[C@H](C(C)C)NC(=O)[C@@H]2CCCN2C1=O [Example 364] ({CH2CO}-[Cha][Bip][Bip(4'-NH)](Indazole3carbonyl(1-CH2COOH))[Sar]HD[dR]IPVHLCG-NH2; thioether N-13),< 50

# Same assay, conditions: HEK-Blue-CD40L cells, NF-kB-driven secreted alkaline phosphatase reporter; TNFα 0.5 ng/ml; 18 h; read-out: TNF induced HEK-Blue assay IC50 value
row,SMILES,IC50 [nM]
1,CC[C@H](C)[C@@H]1NC(=O)[C@@H](CCCNC(=N)N)NC(=O)[C@H](CC(=O)O)NC(=O)[C@H](Cc2cnc[nH]2)NC(=O)CN(C)C(=O)[C@H](Cc2ccc(-c3ccc(NC(=O)c4nn(C)c5ccccc45)cc3)cc2)NC(=O)[C@H](Cc2ccc(-c3ccc(C(=O)O)cc3)cc2)NC(=O)[C@H](CC2CCCCC2)NC(=O)CSC[C@@H](C(=O)NCC(N)=O)NC(=O)[C@H](CC(C)C)NC(=O)[C@H](Cc2cnc[nH]2)NC(=O)[C@H](C(C)C)NC(=O)[C@@H]2Cc3ccccc3CN2C1=O [Example 336] ({CH2CO}-[Cha][Bip(4'-COOH)][X5][Sar]HD[dR]I[Tic]VHLCG-NH2; thioether N-13),< 50
2,CC(C)C[C@@H]1NC(=O)[C@H](CCCNC(=N)N)NC(=O)[C@H](C(C)C)NC(=O)[C@@H]2CCCN2C(=O)[C@H](C(C)C)NC(=O)[C@@H](CCCNC(=N)NCCCCC(N)=O)NC(=O)[C@H](CC(=O)O)NC(=O)[C@@H]2CCCN2C(=O)CN(C)C(=O)[C@H](Cc2ccc(-c3ccc(NC(=O)c4nn(C)c5ccccc45)cc3)cc2)NC(=O)[C@H](Cc2ccc(-c3ccccc3)cc2)NC(=O)[C@H](CN2CCOCC2)NC(=O)CSC[C@@H](C(=O)NCC(N)=O)NC1=O [Example 392] ({CH2CO}-[Ala(morpholin-4-yl)][Bip][X5][Sar]PD[X6]VPVRLCG-NH2; thioether N-13),50 to 200

# Next, values leading:
row,IC50 [nM],SMILES
1,200 to 2000,CC(C)[C@@H]1NC(=O)[C@H](CCCNC(=N)N)NC(=O)[C@H](C(C)C)NC(=O)[C@@H]2CCCN2C(=O)[C@H](C(C)C)NC(=O)[C@H](CCCNC(=N)N)NC(=O)[C@H](CC(=O)O)NC(=O)[C@@H]2CCCN2C(=O)CN(C)C(=O)[C@H](Cc2ccc(-c3ccncc3)cc2)NC(=O)[C@H](Cc2ccc(-c3ccccc3)cc2)NC(=O)[C@H](CN2CCOCC2)NC(=O)CSC[C@@H](C(=O)NCC(N)=O)NC1=O [Example 91] ({CH2CO}-[Ala(morpholin-4-yl)][Bip][Phe(4-(4-pyridyl))][Sar]PDRVPVRVCG-NH2; thioether N-13)
2,50 to 200,CC(=O)Nc1ccc(-c2ccc(C[C@@H]3NC(=O)[C@H](Cc4ccc(-c5ccccc5)cc4)NC(=O)[C@H](C(C)(C)O)NC(=O)CSC[C@@H](C(=O)NCC(N)=O)NC(=O)[C@H](CC(C)C)NC(=O)[C@H](CCCNC(=N)N)NC(=O)[C@H](C(C)C)NC(=O)[C@@H]4CCCN4C(=O)[C@H](C(C)C)NC(=O)[C@H](CCCNC(=N)N)NC(=O)[C@H](CC(=O)O)NC(=O)[C@H](Cc4ccc(O)cc4)NC(=O)CN(C)C3=O)cc2)cc1 [Example 193] ({CH2CO}-[Val(3-OH)][Bip][Bip(4'-NHAc)][Sar]YDRVPVRLCG-NH2; thioether N-13)
3,200 to 2000,CC(C)C[C@@H]1NC(=O)[C@H](Cc2ccccn2)NC(=O)[C@H](C(C)C)NC(=O)[C@@H]2CCCN2C(=O)[C@H](C(C)C)NC(=O)[C@H](CCCNC(=N)N)NC(=O)[C@H](CC(=O)O)NC(=O)[C@@H]2CCCN2C(=O)CN(C)C(=O)[C@H](Cc2ccc(-c3ccccc3)cc2)NC(=O)[C@H](Cc2ccc(-c3ccccc3)cc2)NC(=O)[C@H](Cc2ccccc2)NC(=O)CSC[C@@H](C(=O)NCC(N)=O)NC1=O [Example 34] ({CH2CO}-F[Bip][Bip][Sar]PDRVPV[2Pal]LCG-NH2; thioether N-13)
4,50 to 200,CC(=O)Nc1ccc(-c2ccc(C[C@@H]3NC(=O)[C@H](Cc4ccc(-c5ccccc5)cc4)NC(=O)[C@H](CN4CCOCC4)NC(=O)CSC[C@@H](C(=O)NCC(N)=O)NC(=O)[C@H](CC(C)C)NC(=O)[C@H](CCCNC(=N)N)NC(=O)[C@H](C(C)C)NC(=O)[C@@H]4CCCN4C(=O)[C@H](C(C)C)NC(=O)[C@H](CCCNC(=N)N)NC(=O)[C@H](CC(=O)O)NC(=O)[C@@H]4CCCN4C(=O)CN(C)C3=O)cc2)cc1 [Example 126] ({CH2CO}-[Ala(morpholin-4-yl)][Bip][Bip(4'-NHAc)][Sar]PDRVPVRLCG-NH2; thioether N-13)
5,200 to 2000,CC(=O)Nc1ccc(-c2ccc(C[C@@H]3NC(=O)[C@H](Cc4ccc(-c5ccc(C(=O)O)cc5)cc4)NC(=O)[C@H](CC4CCCCC4)NC(=O)CSC[C@@H](C(=O)N[C@@H](CCC(N)=O)C(N)=O)NC(=O)[C@H](CC(C)C)NC(=O)[C@H](Cc4ccc(O)cc4)NC(=O)[C@H](C(C)C)NC(=O)[C@@H]4CCCN4C(=O)[C@H](C(C)C)NC(=O)[C@@H](CCCNC(=N)N)NC(=O)[C@H](CC(=O)O)NC(=O)[C@@H]4CCCN4C(=O)CN(C)C3=O)cc2)cc1 [Example 244] ({CH2CO}-[Cha][Bip(4'-COOH)][Bip(4'-NHAc)][Sar]PD[dR]VPVYLCQ-NH2; thioether N-13)
6,200 to 2000,CC[C@H](C)[C@@H]1NC(=O)C2CCCN2C(=O)[C@H]([C@@H](C)CC)NC(=O)[C@@H](CCCNC(=N)N)NC(=O)[C@H](CC(=O)O)NC(=O)[C@H](Cc2ccccc2)NC(=O)CN(C)C(=O)[C@H](Cc2ccc(-c3ccc(NC(=O)c4ccc5c(c4)CCc4ccccc4-5)cc3)cc2)NC(=O)[C@H](Cc2ccc(-c3ccc(C(=O)O)cc3)cc2)NC(=O)[C@H](C(C)(C)C)NC(=O)CSC[C@@H](C(=O)NCC(N)=O)NC(=O)[C@H](CC(C)C)NC(=O)[C@H](Cc2ncc[nH]2)NC1=O (stereo partly drawn) [Example 419] ({CH2CO}-[Tle][Bip(4'-COOH)][Bip(4'-NH)](X60)[Sar]FD[dR]I[ξP]I[Ala(imidazol-2-yl)]LCG-NH2; thioether N-13)
7,< 50,CC(=O)Nc1ccc(-c2ccc(C[C@@H]3NC(=O)[C@H](Cc4ccc(-c5ccccc5)cc4)NC(=O)[C@H](C(C)(C)O)NC(=O)CSC[C@@H](C(=O)NCC(N)=O)NC(=O)[C@H](CC(C)C)NC(=O)[C@H](Cc4ccc(O)cc4)NC(=O)[C@H](C(C)C)NC(=O)[C@@H]4CCCN4C(=O)[C@H](C(C)C)NC(=O)[C@@H](CCCNC(=N)N)NC(=O)[C@H](CC(=O)O)NC(=O)[C@H](Cc4ccccn4)NC(=O)CN(C)C3=O)cc2)cc1 [Example 175] ({CH2CO}-[Val(3-OH)][Bip][Bip(4'-NHAc)][Sar][2Pal]D[dR]VPVYLCG-NH2; thioether N-13)
8,< 50,CC[C@H](C)[C@@H]1NC(=O)[C@@H](CCCNC(=N)N)NC(=O)[C@H](CC(=O)O)NC(=O)[C@H](Cc2cnc[nH]2)NC(=O)CN(C)C(=O)[C@H](Cc2ccc(-c3ccc(NC(=O)c4cccc(OCC(=O)O)c4)cc3)cc2)NC(=O)[C@H](Cc2ccc(-c3ccc(C(=O)Nc4cccc(OCC(=O)O)c4)cc3)cc2)NC(=O)[C@H](CC2CCCCC2)NC(=O)CSC[C@@H](C(=O)NCC(N)=O)NC(=O)[C@H](CC(C)C)NC(=O)[C@H](Cc2ncc[nH]2)NC(=O)[C@H](C(C)C)NC(=O)C2CCCN2C1=O (stereo partly drawn) [Example 422] ({CH2CO}-[Cha][X56][Bip(4'-NH)](Benzoyl(3-OCH2COOH))[Sar]HD[dR]I[ξP]V[Ala(imidazol-2-yl)]LCG-NH2; thioether N-13)
9,50 to 200,CC(=O)Nc1ccc(-c2ccc(C[C@@H]3NC(=O)[C@H](Cc4ccc(-c5ccc(C(=O)O)cc5)cc4)NC(=O)[C@H](CN4CCOCC4)NC(=O)CSC[C@@H](C(=O)NCC(N)=O)NC(=O)[C@H](CC(C)C)NC(=O)[C@H](Cc4cccc(C(N)=O)c4)NC(=O)[C@H](C(C)C)NC(=O)[C@@H]4CCCN4C(=O)[C@H](C(C)C)NC(=O)[C@@H](CCCNC(=N)N)NC(=O)[C@H](CC(=O)O)NC(=O)[C@H](Cc4ccccn4)NC(=O)CN(C)C3=O)cc2)cc1 [Example 200] ({CH2CO}-[Ala(morpholin-4-yl)][Bip(4'-COOH)][Bip(4'-NHAc)][Sar][2Pal]D[dR]VPV[Phe(3-CONH2)]LCG-NH2; thioether N-13)
